pIC50: −log10 of the molar value.
Columns and labels:
Aurora A = target: T1, Aurora A (Homo sapiens, UniProt O14965); assay: Aurora A inhibitory action (33P-ATP kinase assay, Kemptide substrate); format: biochemical; conditions: 20 μM ATP, 30° C., 20 minutes
T1 construct: histidine tag (N); made in house; host or cells: Escherichia coli BL21-CodonPlus(DE3)-RIL
T1 sequence (O14965 1-403): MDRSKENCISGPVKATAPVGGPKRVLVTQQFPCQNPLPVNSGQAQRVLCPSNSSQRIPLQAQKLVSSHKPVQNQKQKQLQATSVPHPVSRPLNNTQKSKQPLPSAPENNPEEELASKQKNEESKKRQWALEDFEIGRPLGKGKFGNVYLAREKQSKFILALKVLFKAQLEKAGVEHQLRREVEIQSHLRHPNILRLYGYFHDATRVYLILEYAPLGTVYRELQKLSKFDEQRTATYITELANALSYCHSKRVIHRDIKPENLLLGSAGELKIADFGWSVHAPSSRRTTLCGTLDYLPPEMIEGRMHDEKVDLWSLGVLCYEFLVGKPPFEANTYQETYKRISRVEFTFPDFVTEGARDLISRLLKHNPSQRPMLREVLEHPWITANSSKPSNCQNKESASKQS
Procedure, shortened: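 His-tagged Aurora A expressed in E. coli, Ni-purified; reaction in 50 mM Tris pH 7.4, 15 mM Mg acetate, 0.2 mM EDTA with 100 μM Kemptide, 20 μM ATP plus [γ-33P]ATP, 20 min at 30 °C. Phosphopeptide captured on P81 filters and counted by scintillation; DMSO control.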

Aurora B = target: T2, Aurora B (Homo sapiens, UniProt Q96GD4); assay: Aurora B inhibitory action (33P-ATP kinase assay, Kemptide substrate); format: biochemical; conditions: 100 μM ATP, 30° C., 20 minutes
T2 construct: histidine tag (N); made in house; host or cells: Escherichia coli BL21-CodonPlus(DE3)-RIL
T2 sequence (Q96GD4 whole entry): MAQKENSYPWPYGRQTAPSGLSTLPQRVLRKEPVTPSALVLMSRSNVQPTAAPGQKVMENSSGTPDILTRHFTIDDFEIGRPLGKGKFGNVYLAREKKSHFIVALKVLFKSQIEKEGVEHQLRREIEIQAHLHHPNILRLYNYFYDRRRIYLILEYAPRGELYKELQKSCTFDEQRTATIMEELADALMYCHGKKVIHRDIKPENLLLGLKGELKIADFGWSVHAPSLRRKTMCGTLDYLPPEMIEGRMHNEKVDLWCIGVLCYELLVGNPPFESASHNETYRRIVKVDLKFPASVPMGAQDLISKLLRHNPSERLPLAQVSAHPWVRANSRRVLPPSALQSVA
Procedure, shortened: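 His-tagged Aurora B expressed in E. coli, reacted with 100 μM Kemptide, 100 μM ATP plus [γ-33P]ATP in Tris pH 7.4, 15 mM Mg acetate, 0.2 mM EDTA, 30 °C, 20 min. Peptide captured on P81 filters for scintillation counting; compounds added from DMSO dilutions.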

[1] = test system: Human cervical cancer cells (HeLa S3); assay: Effect by combined use of drugs in cells (with paclitaxel), WST-8 method; format: cell-based; conditions: three days; for inhibition at 1 µM: HeLa S3, compound 1.0 μM alone; for inhibition at 0.3 µM: HeLa S3, compound 0.3 μM alone
Excerpt: Method for Judging the Effect by Combined Use of Drugs in Cells
Fetal calf serum (FCS) was purchased from Moregate Biotech, DMEM medium from Invitrogen Corp., paclitaxel (tradename: Taxol) from Sigma-Aldrich, Inc., and WST-8 from Kishida Chemical Co., Ltd.
(§1) Human cervical cancer cells (HeLa S3) were obtained from the American Type Culture Collection (ATCC).
(§2) c) Method of Judging the Effect
Cells were suspended in a DMEM medium containing 10% FCS, and the cell suspension was dispensed to two 96-well plastic plates at a rate of 750 cells/100 microliters per well. The plates were incubated overnight in 5% CO2-95% air at 37° C. A drug was subjected to graded dilution in dimethylsulfoxide and flurther diluted with DMSO or with a DMEM medium containing 10% FCS and also containing 2 nM paclitaxel. Then, the dilutions were each dispensed to one of the plates on which cells had been disseminated, at a rate of 100 microliters per well. The final concentration of paclitaxel at this stage was 1 nM. Also, the concentrations in the case of sole administration of the compound according to the invention were 0.03, 0.1, 0.3, 1 and 3 μM. The plates were incubated for further three days in 5% CO2-95% air at 37° C. Cell growth after incubation was measured by the WST-8 method (H. Tominaga, et al., Anal. Commun., 36, 47-50 (1999)). Here, the WST-8 method refers to a method in which 20 microliters of a WST-8 reagent solution is added to each well, incubation is conducted at 37° C. for 45 minutes, the plate is stirred, and the amount of formazan produced is measured by a colorimetric method to determine the inhibitory rate of the drug. The growth inhibitory effects of paclitaxel and of the compound according to the invention were determined, with the value obtained in sole treatment of DMSO being defined as 0%.

[2] = test system: Human cervical cancer cells (HeLa S3); assay: Cell growth inhibitory effect, WST-8 method; format: cell-based; conditions: 72 h, HeLa S3, three days incubation
Excerpt: Method for Judging the Pharmaceutical Effect Using cells
Fetal calf serum (FCS) was purchased from Moregate Biotech, and DMEM medium was purchased from Invitrogen Corp. WST-8 was purchased from Kishida Chemical Co., Ltd.
as §1, §2
Cells were suspended in a DMEM medium containing 10% FCS, and the cell suspension was dispensed to a 96-well plastic plate at a rate of 750 cells/l 00 microliters per well. The plate was incubated overnight in 5% CO2-95% air at 37° C. A drug was subjected to graded dilution in dimethylsulfoxide and further diluted with a DMEM medium containing 10% FCS. Then, the dilution was dispensed to the plate on which cells had been disseminated, at a rate of 100 microliters per well. The plate was incubated for further three days in 5% CO2-95% air at 37° C. Cell growth after incubation was measured by the WST-8 method (H. Tominaga, et al., Anal. Commun., 36, 47-50 (1999)). Here, the WST-8 method refers to a method in which 20 microliters of a WST-8 reagent solution is added to each well, incubation is conducted at 37° C. for 45 minutes, the plate is stirred, and the amount of formazan produced is measured by a calorimetric method to determine the inhibitory rate of the drug. The concentration for 50% growth inhibition (EC50, IM) of the compound was determined.

[3] = HeLa S3, compound 1.0 μM + paclitaxel 1 nM
[4] = Homo sapiens, HeLa S3, 72 h, read-out: Cell growth inhibitory effect by sole administration of the compound of Example (%)
[5] = HeLa S3, compound 0.3 μM + paclitaxel 1 nM

SMILES	pIC50 (Aurora A)	pIC50 (Aurora B)	Cell growth inhibitory effect by combined administration of paclitaxel and the compound of Example (%) [1, 3]	inhibition at 1 µM [1, 4]	pIC50 [2]	Cell growth inhibitory effect by combined administration of paclitaxel and the compound of Example (%) [1, 5]	inhibition at 0.3 µM [1, 4]	Cell growth inhibitory effect by combined administration of paclitaxel and the compound of Example (%) ([1]; HeLa S3, compound 0.1 μM + paclitaxel 1 nM)	inhibition at 0.1 µM ([1]; Homo sapiens, HeLa S3, 72 h, HeLa S3, compound 0.1 μM alone, read-out: Cell growth inhibitory effect by sole administration of the compound of Example (%))	Cell growth inhibitory effect by combined administration of paclitaxel and the compound of Example (%) ([1]; HeLa S3, compound 3.0 μM + paclitaxel 1 nM)	inhibition at 3 µM ([1]; Homo sapiens, HeLa S3, 72 h, HeLa S3, compound 3.0 μM alone, read-out: Cell growth inhibitory effect by sole administration of the compound of Example (%))
O=C(c1cccc(Cl)c1F)N1C[C@@H]2C[C@H]1CN2Cc1cncc(Nc2cc[nH]n2)n1 [Example 46, 6-(((1S,4S)-5-(3-chloro-2-fluorobenzoyl)-2,5-diazabicyclo[2.2. 1]hept-2-yl)methyl)-N-1H-pyrazol-3-ylpyrazin-2-amine]	8.21	5.85	75.0%	8.5%	5.39						
O=C(c1cccc(Cl)c1F)N1CCN(Cc2cncc(Nc3cc[nH]n3)n2)CC1 [Example 50, 6-((4-(3-chloro-2-fluorobenzoyl)piperazin-1-yl)methyl)-N-1H-pyrazol-3-ylpyrazin-2-amine]	8.66	5.27	82.0%	6%	5.44						
Cc1cc(Nc2cncc(CN3CCN(C(=O)c4cccc(Cl)c4F)CC3)n2)n[nH]1 [Example 56, 6-((4-(3-chloro-2-fluorobenzoyl)piperazin-1-yl)methyl)-N-(5-methyl-1H-pyrazol-3-yl)pyrazin-2-amine]	8.68	5.54			5.85	81.8%	6.5%				
O=C(c1cccc(Cl)c1F)N1CCN(Cc2cncc(Nc3nccs3)n2)CC1 [Example 58, 6-((4-(3-chloro-2-fluorobenzoyl)piperazin-1-yl)methyl)-N-thiazol-2-ylpyrazin-2-amine]	8.32	5.00	81.4%	0%	5.52						
O=C(c1ccco1)N1CCN(Cc2cccc(Nc3ncc(Cl)s3)n2)CC1 [Example 62]	7.92	6.42			6.07			68.0%	2.9%		
O=C(c1cccs1)N1CCN(Cc2cccc(Nc3ncc(Cl)s3)n2)CC1 [Example 66, 6-((4-(2-thienylcarbonyl)piperazin-1-yl)methyl)-N-(5-chlorothiazol-2-yl)pyridin-2-amine]	8.47	6.60	60.9%	7.2%	5.54						
Cc1nc(C(=O)N2CCN(Cc3cccc(Nc4ncc(Cl)s4)n3)CC2)cs1 [Example 68, 6-((4-((2-methyl-thiazol-4-yl)carbonyl)piperazin-1-yl)methyl)-N-(5-chlorothiazol-2-yl)pyridin-2-amine]	7.96	6.17			5.29					71.8%	27.3%
N#Cc1cccc(C(=O)N2CCN(Cc3cccc(Nc4ncc(Cl)s4)n3)CC2)c1 [Example 71, 6-((4-(3-cyanobenzoyl)piperazin-1-yl)methyl)-N-(5-chlorothiazol-2-yl)pyridin-2-amine]	8.52	6.43	60.7%	13.2%	5.52						
O=C(c1cccc(Cl)c1F)N1CCN(Cc2cccc(Nc3ncc(Cl)s3)n2)CC1 [Example 75, 6-((4-(3-chloro-2-fluorobenzoyl)piperazin-1-yl)methyl)-N-(5-chlorothiazol-2-yl)pyridin-2-amine]	9.36	7.05			4.96	91.5%	27.1%				
O=C(Cc1ccc(Cl)cc1)N1CCN(Cc2cccc(Nc3ncc(Cl)s3)n2)CC1.O=C(O)C(F)(F)F [Example 77, 6-((4-((4-chlorophenyl)acetyl)piperazin-1-yl)methyl)-N-(5-chlorothiazol-2-yl)pyridin-2-amine trifluoroacetate]	8.39	5.89			5.80	51.8%	2.2%				

Source: patent publication US20080027042A1, “Novel Aminopyridine Derivatives Having Aurora a Selective Inhibitory Action” (priority 2004, published 2008)
